Experimental data from US20070088019A1, “Macroheterocyclic compounds as kinase inhibitors” (priority 2005, published 2007).

What was measured:
PKC isoform α = PKC isoform α (Homo sapiens, UniProt P17252); assay: Protein Kinase C histone-based assay, PKC alpha; type: biochemical; conditions: histone substrate, 30 μM ATP, 10 min at 30° C.
Protocol: (§1) Protein Kinase C Histone-Based Assay
(§2) Compounds were evaluated for PKC selectivity using histone III as the substrate. The PKC isoforms α, β-II or γ were added to a reaction mixture containing 20 mM HEPES, (pH 7.4), […] CaCl2, 10 mM MgCl2, 1 mM EGTA. 100 μg/mL phosphatidylserine, 20 μg/mL diacylglycerol, 30 μM ATP, 1 μCi (^33P)ATP, and 200 μg/mL […]. The reaction was incubated for 10 min at 30° C. Reactions were terminated by TCA precipitation and spotting on Whatman P81 filters. Filters were washed in 75 mM phosphoric acid and the radioactivity quantified by liquid scintillation counting.

PKC Beta I = PKC Beta I (Homo sapiens, UniProt P05771); assay: Protein Kinase C histone-based assay, PKC beta I; type: biochemical; conditions: histone substrate, 30 μM ATP, 10 min at 30° C.
Chain of PKC Beta I (P05771 whole entry, canonical isoform): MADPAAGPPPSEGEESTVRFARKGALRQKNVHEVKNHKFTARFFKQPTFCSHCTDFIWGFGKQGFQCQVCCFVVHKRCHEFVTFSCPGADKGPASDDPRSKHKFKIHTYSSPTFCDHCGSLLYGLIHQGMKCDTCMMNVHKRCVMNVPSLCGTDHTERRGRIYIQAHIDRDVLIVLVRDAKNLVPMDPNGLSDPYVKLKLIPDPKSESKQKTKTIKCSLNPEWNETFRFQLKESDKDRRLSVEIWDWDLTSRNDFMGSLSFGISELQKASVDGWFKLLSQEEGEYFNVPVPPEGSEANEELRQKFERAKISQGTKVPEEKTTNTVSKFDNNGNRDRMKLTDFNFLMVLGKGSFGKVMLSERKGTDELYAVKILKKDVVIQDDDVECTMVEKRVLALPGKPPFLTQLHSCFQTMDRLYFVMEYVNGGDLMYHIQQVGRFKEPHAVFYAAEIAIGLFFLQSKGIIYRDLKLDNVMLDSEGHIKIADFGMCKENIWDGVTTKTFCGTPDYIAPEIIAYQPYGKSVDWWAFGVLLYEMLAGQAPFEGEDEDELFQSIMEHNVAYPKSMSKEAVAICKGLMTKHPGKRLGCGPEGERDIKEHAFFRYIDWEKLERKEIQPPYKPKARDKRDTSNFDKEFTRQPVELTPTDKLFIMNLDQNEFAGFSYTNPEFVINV

PKC isoform β-II = PKC isoform β-II (Homo sapiens, UniProt P05771); assay: Protein Kinase C histone-based assay, PKC beta II; type: biochemical; conditions: histone substrate, 30 μM ATP, 10 min at 30° C.
Chain of PKC isoform β-II (P05771 1-673 isoform P05771-2): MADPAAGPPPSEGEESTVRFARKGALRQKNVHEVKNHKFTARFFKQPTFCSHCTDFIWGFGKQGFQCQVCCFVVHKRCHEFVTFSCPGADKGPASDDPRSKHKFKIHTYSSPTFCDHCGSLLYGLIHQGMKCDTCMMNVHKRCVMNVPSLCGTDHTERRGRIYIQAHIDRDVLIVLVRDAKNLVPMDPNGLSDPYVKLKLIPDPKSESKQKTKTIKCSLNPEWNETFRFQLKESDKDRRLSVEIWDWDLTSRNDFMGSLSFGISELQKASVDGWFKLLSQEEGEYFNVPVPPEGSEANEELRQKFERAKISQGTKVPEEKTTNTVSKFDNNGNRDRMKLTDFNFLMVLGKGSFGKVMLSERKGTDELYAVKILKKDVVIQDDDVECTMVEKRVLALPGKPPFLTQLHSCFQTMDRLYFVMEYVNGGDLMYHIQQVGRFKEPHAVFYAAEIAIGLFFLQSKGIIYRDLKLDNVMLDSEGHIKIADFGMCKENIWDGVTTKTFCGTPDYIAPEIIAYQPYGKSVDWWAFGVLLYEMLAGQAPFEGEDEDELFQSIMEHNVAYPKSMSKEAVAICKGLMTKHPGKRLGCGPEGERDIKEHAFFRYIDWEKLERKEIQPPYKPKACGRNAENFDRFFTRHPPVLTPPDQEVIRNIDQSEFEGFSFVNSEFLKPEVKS
Protocol: as §1, §2

PKC isoform γ = PKC isoform γ (Homo sapiens, UniProt P05129); assay: Protein Kinase C histone-based assay, PKC gamma; type: biochemical; conditions: histone substrate, 30 μM ATP, 10 min at 30° C.
Protocol: as §1, §2

[1] = target: T1, recombinant rabbit GSK-3β protein (Oryctolagus cuniculus, UniProt G1T8E2); assay: Glycogen Synthase Kinase-3 assay; type: biochemical; conditions: PPI-2 substrate, 33P-ATP, 90 minutes at 30° C.
T1 construct: purchased New England Biolabs
T1 sequence (G1T8E2 1-432): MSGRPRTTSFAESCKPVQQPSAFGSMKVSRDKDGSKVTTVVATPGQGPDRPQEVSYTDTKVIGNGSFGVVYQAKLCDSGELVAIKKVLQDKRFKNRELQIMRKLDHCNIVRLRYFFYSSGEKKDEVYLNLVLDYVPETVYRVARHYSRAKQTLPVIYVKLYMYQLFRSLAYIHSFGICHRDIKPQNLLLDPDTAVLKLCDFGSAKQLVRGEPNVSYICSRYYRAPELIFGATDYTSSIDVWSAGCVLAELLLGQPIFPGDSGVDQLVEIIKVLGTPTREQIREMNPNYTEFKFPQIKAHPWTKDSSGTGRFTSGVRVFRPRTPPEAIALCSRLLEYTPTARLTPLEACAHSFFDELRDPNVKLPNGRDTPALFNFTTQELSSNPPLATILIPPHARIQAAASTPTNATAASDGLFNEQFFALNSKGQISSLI
Protocol: Glycogen Synthase Kinase-3 Assay
Compounds were tested for the ability to inhibit recombinant rabbit GSK-3β protein using the following protocol. The test compound was added to a reaction mixture containing Protein phosphatase inhibitor-2 (PPI-2) (Calbiochem) (45 ng), rabbit GSK-3β protein (New England Biolabs) (0.75 units) and ^33P-ATP (1 μCi) in 50 mM Tris-HCl (pH 8.0), 10 mM MgCl2, 0.1% BSA, 1 mM DTT and 100 μM Sodium Vanadate. The mixture was reacted for 90 minutes at 30° C. to allow phosphorylation of the PPI-2 protein and then the protein in the reaction was precipitated using 10% TCA. The precipitated protein was collected on filter plates (MultiScreen-DV/Millipore), which were subsequently washed. Finally, the radioactivity was quantified using a TopCount Scintillation Counter (Packard). […] Staurosporine or Valproate, known inhibitors of GSK-3β, were used as a positive control for screening.

[2] = system: retinal neovascularization; assay: Murine retinopathy in-vivo model (oxygen-induced retinopathy); parameters: species or system mouse; conditions: 60 mg/kg
From the text: Murine Retinopathy In-Vivo Model
The methods used in this model are known to those skilled in the art and are referenced in the scientific literature, such as Smith, L. E., Wesolowski, E., McLellan, A., Kostyk, S. K., D'Amato, R., Sullivan, R., and D'Amore, P. A. “Oxygen-induced retinopathy in the mouse”. Invest. Ophthalmol. Vis. Sci., 1994, January; 35(1): 101-11.

IC50 (PKC isoform α) [nM] | IC50 (PKC Beta I) [nM] | IC50 (PKC isoform β-II) [nM] | IC50 (PKC isoform γ) [nM] | IC50 [1] [nM] | Compound | retinal neovascularization [2]
160 | 9 | 6 | 360 | 5 | O=C1NC(=O)C2=C1c1cn(c3ccccc13)CCNCCSCCNCCn1cc2c2ccccc21 [Compound 1, 10,11,12,13,14,16,17,18,19,20-decahydro-15-thio-2,9,12,18,21-pentaaza-1H-diindolo[1,2,3-m,n:3′,2′,1′-r,s]cyclononadec-14,16,18-trien[16,17-c]-pyrrole-2,5-dione] | 
490 | 27 | 41 | 1560 | 6 | CN1CCOCCN(C)CCn2cc(c3ccccc32)C2=C(C(=O)NC2=O)c2cn(c3ccccc23)CC1 [Compound 2, 12,18-dimethyl-10,11,12,13,14,16,17,18,19,20-decahydro-15-oxa-2,9,12,18,21-pentaaza-1H-diindolo[1,2,3-m,n:3′,2′,1′-r,s]cyclononadec-14,16,18-trien[16,17-c]-pyrrole-2,5-dione] | 
330 | 9 | 13 | 5840 | 7 | O=C1NC(=O)C2=C1c1cn(c3ccccc13)CCNCCOCCNCCn1cc2c2ccccc21 [Compound 3, 10,11,12,13,14,16,17,18,19,20-decahydro-15-oxa-2,9,12,18,21-pentaaza-1H-diindolo[1,2,3-m,n:3′,2′,1′-r,s]cyclononadec-14,16,18-trien[16,17-c]-pyrrole-2,5-dione] | inhibited retinal neovascularization
280 | 6 | 8 | 1200 |  | CN1CCOCCNCCn2cc(c3ccccc32)C2=C(C(=O)NC2=O)c2cn(c3ccccc23)CC1 [Compound 4, 18-methyl-10,11,12,13,14,16,17,18,19,20-decahydro-15-oxa-2,9,12,18,21-pentaaza-1H-diindolo[1,2,3-m,n:3′,2′,1′-r,s]cyclononadec-14,16,18-trien[16,17-c]-pyrrole-2,5-dione] | 
